Assays:
[1] = target: IKKε (Homo sapiens (Human), UniProt Q14164); experiment: TR-FRET kinase assay, IKKε; format: biochemical; details: full length recombinant IKKε 0.3 nM, 2x Km ATP, 1 μM peptide, 240 min at 25° C.; geometric mean of minimum four determinations
Excerpt: Biological Assay for TBK1 and IKKs:

[2] = target: TBK1 (Homo sapiens (Human), UniProt Q9UHD2); experiment: TR-FRET kinase assay, TBK1; details: read-out: TBK1-IC50; full length recombinant TBK1 2.5 nM, 2x Km ATP, 1 μM peptide, 240 min at 25° C.; geometric mean of minimum four determinations
Sequence of TBK1 (Q9UHD2 whole entry): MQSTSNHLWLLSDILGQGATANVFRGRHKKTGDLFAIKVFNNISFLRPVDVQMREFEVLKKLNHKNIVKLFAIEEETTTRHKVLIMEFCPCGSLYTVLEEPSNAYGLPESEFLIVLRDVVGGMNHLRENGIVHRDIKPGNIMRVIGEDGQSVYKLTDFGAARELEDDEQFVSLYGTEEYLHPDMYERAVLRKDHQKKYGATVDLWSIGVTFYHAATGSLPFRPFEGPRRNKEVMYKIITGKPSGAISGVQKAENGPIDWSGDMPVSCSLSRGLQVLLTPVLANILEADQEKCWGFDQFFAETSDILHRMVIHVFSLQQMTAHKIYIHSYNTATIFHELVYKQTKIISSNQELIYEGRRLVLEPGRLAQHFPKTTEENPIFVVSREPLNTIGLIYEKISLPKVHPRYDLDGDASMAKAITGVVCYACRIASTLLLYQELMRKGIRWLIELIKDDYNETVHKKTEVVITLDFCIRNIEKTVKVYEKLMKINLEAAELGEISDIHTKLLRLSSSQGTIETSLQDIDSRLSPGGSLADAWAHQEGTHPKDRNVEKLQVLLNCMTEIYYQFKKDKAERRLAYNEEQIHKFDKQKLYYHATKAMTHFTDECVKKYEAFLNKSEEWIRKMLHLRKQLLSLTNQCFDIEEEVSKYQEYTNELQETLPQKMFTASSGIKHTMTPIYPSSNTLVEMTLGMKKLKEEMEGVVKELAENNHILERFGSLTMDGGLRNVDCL

Sequence of IKKε (Q14164 whole entry): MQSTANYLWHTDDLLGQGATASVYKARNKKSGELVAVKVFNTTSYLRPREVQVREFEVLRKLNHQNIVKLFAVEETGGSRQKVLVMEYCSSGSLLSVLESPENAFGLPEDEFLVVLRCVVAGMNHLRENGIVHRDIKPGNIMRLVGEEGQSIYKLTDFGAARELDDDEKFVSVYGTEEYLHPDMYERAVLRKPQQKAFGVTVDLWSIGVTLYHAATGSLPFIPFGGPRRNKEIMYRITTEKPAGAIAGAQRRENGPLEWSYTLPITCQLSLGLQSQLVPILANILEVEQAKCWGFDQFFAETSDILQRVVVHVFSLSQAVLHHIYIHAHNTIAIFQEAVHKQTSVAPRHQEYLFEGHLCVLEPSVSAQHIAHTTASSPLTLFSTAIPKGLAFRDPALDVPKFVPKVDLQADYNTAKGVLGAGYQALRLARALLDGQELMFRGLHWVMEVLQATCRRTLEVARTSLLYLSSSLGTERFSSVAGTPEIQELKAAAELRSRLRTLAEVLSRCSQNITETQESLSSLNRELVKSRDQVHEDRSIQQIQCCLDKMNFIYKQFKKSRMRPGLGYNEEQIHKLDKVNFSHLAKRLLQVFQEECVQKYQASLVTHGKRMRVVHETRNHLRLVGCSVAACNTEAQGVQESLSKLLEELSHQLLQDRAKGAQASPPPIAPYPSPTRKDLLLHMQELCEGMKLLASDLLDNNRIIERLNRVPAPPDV

IC50 [1] [nM]	IC50 [2] [nM]	SMILES
12.7	5.09	N#Cc1cc(-c2ncnc3[nH]c(-c4ccc5c(c4)NCCO5)cc23)ccc1OC1CCOCC1 [Example 191, 5-(6-(3,4-dihydro-2H-benzo[b][1,4]oxazin-6-yl)-7H-pyrrolo[2,3-d]pyrimidin-4-yl)-2-((tetrahydro-2H-pyran-4-yl)oxy)benzonitrile]
115	21.2	COc1cc(-c2cc3c(-c4ccc(OC5CCNCC5)c(C#N)c4)ncnc3[nH]2)ccc1N1CCOCC1 [Example 122, 5-(6-(3-methoxy-4-morpholinophenyl)-7H-pyrrolo[2,3-d]pyrimidin-4-yl)-2-(piperidin-4-yloxy)benzonitrile]
5.79	5.13	N#Cc1cc(-c2ncnc3[nH]c(-c4ccc(Cn5ccnc5)cc4)cc23)ccc1OC1CCOCC1 [Example 114, 5-(6-(4-((1H-imidzol-1-yl)methyl)phenyl)-7H-pyrrolo[2,3-d]pyrimidin-4-yl)-2-((tetrahydro-2H-pyran-4-yl)oxy)benzonitrile]
14.2	6.09	CC(=O)N1CCC(Oc2ccc(-c3ncnc4[nH]c(-c5ccc(N6CCOCC6)cc5)nc34)cc2C#N)CC1 [Example 249, 2-((1-acetylpiperidin-4-yl)oxy)-5-(8-(4-morpholinophenyl)-9H-purin-6-yl)benzonitrile]

Source: US10072001B2, “Tank-binding kinase inhibitor compounds” (Gilead Sciences, Inc., priority 2014, dated 2018)
